# Test results: PubChem BioAssay AID1963873 (Molecular Pharmacology Branch, DTP, NCI, 2024)
# Test system: 276233-004-R-J1-PDC KRAS spheroids with HUVEC/MSC, viability
# Assay: Anticancer human tumor 276233-004-R-J1-PDC patient-derived colon adenocarcinoma cell line growth inhibition [KRAS2]
# Details: for IC50: curve of first compound; for viability, T/C: stronger effect = lower value
# Description: Multicellular complex tumor spheroid response to RAS pathway inhibitors in combination with a targeted agents in patient-derived cell lines with oncogenic KRAS variants from multiple cancer types
# A high-throughput screen of multi-cell type tumor spheroids was designed to identify active combinations of targeted small molecules and KRAS pathway inhibitors. Complex spheroids include a stromal component modeled by human endothelial cells (HUVEC) and fibroblasts modeled by human mesenchymal stem cells (MSCs). The concentration ranges selected for each drug and investigational agent were based upon clinically achievable concentrations if the clinical Cmax of the agent was known.
# Compounds. The drugs and investigational agents: BI-3406 (NSC825286), BAY-293 (NSC824723), batoprotafib (TNO155; NSC825523), sotorasib (AMG 510; NSC818433), MRTX1257 (NSC819558), elimusertib (BAY 1895344; NSC800525), molibresib (GSK525762; NSC774829), temuterkib (LY3214996; NSC803410), venetoclax (NSC766270), alisertib (NSC759677), olaparib (NSC753686), talazoparib (NSC767125), erdafitinib (NSC781556), ipatasertib (NSC767898), cabozantinib (NSC761068), nintedanib (NSC756659), abemaciclib (NSC768073), docetaxel (NSC628503), trametinib (NSC758246), and sapanisertib (NSC764658) were obtained from the National Cancer Institute (NCI) Developmental Therapeutics Program Chemical Repository. The FDA-approved anticancer drug set is available from the Developmental Therapeutics Program. […] The stock solutions were prepared in dimethyl sulfoxide (DMSO, Sigma-Aldrich, St. Louis, MO, cat. D2650) at 800-fold the tested concentration and stored at -70 degrees C prior to their use. All drugs and investigational agents were tested over a range starting from a high concentration at or near the clinical Cmax and decreasing in half-log increments. If the clinical Cmax for an agent had not been determined, the highest concentration tested was 10 microM.
# Cell Culture. All cells were maintained in an incubator at 37 degrees C and 5% CO2 with 95% humidity. The PDC lines were cultured according to standard operating procedures established by the NCI PDMR (https://pdmr.cancer.gov/sops/default.htm). Briefly, all PDCs were thawed and cultured in Matrigel-coated flasks prepared with a working solution of 1X Ham's F-12 nutrient mix, without supplementation (Invitrogen, Waltham, MA, cat. 11765054), 100 U/mL penicillin-streptomycin (Invitrogen, cat. 15140122), and 2.5% Matrigel (Corning Inc., Corning, NY, cat. 354248) for the first three passages. All PDCs were cultured in complete DMEM/F-12 media containing advanced DMEM/F-12 (Invitrogen, cat. 12634028), 4.9% defined fetal bovine serum, heat inactivated (HyClone Laboratories Inc., Logan, UT, cat. SH30070.03HI), 389 ng/mL hydrocortisone (Sigma-Aldrich, cat. H4001), 9.7 ng/mL human EGF recombinant protein (Invitrogen, cat. PHG0313), 23.4 microg/mL adenine (Sigma-Aldrich, cat. A2786), 97.3 U/mL penicillin-streptomycin (Invitrogen, cat. 15140122), 1.9 mM L-glutamine (Invitrogen, cat. 25030081), and 9.7 microM Y-27632 dihydrochloride (Tocris Bioscience, Bristol, United Kingdom, cat. 1254). The PDCs were cultured in complete DMEM/F12 media without 9.7 microM Y-27632 dihydrochloride for at least two passages prior to the screen. The established cell line HOP-62 was cultured in RPMI 1640 medium, HEPES (Invitrogen, cat. 22400105) with 10% defined fetal bovine serum (HyClone Laboratories Inc., cat. SH30070.03) and 2 mM L-glutamine (Invitrogen, cat. 25030081). The pooled donor HUVEC were cultured in endothelial cell growth medium 2 (PromoCell, Heidelberg, Germany, cat. C-22011) and the hMSC were cultured in mesenchymal stem cell growth medium 2 (PromoCell, cat. C-28009). For all experiments, HUVEC and hMSC were used at passages </=5, while the malignant cell lines were used at passages </=15. […]
# [1] = second compound 0.1 µM, first compound 0.01 µM
# [2] = second compound 0.1 µM, first compound 0.0316 µM
# [3] = second compound 0.1 µM, first compound 0.1 µM
# [4] = second compound 0.316 µM, first compound 0.01 µM
# [5] = second compound 0.316 µM, first compound 0.0316 µM
# [6] = second compound 0.316 µM, first compound 0.1 µM
# [7] = second compound 1 µM, first compound 0.01 µM
# [8] = second compound 1 µM, first compound 0.0316 µM
# [9] = second compound 1 µM, first compound 0.1 µM
# [10] = second compound 3.16 µM, first compound 0.01 µM
# [11] = second compound 3.16 µM, first compound 0.0316 µM
# [12] = second compound 3.16 µM, first compound 0.1 µM
# 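Note: cells exposed to agents for seven days before viability read.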
# 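Throughout, for viability, T/C: 100% = DMSO vehicle control wells and lower values mean fewer viable cells.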
compound,measurement,setting,value
CC1COCCN1c1cc(-c2ccnn2C)c2ccnc(-c3ccn[nH]3)c2n1 (stereo not given) + COc1cc2nc(C)nc(NC(C)c3cc(N)cc(C(F)(F)F)c3)c2cc1OC1CCOC1,IC50,second compound 0.1 µM,1470 nM
same,IC50,second compound 0.316 µM,706 nM
same,IC50,second compound 1 µM,1860 nM
same,IC50,second compound 3.16 µM,474 nM
same,IC50,second compound 10 µM,< 10 nM
same,"viability, T/C",[1],81.3%
same,"viability, T/C",[2],90.3%
same,"viability, T/C",[3],75.8%
same,"viability, T/C","second compound 0.1 µM, first compound 0.316 µM",71.4%
same,"viability, T/C","second compound 0.1 µM, first compound 1 µM",54.5%
same,"viability, T/C","second compound 0.1 µM, first compound 3.16 µM",40.6%
same,"viability, T/C",[4],80%
same,"viability, T/C",[5],86.1%
same,"viability, T/C",[6],74.2%
same,"viability, T/C","second compound 0.316 µM, first compound 0.316 µM",58.9%
same,"viability, T/C","second compound 0.316 µM, first compound 1 µM",42.6%
same,"viability, T/C","second compound 0.316 µM, first compound 3.16 µM",48.6%
same,"viability, T/C",[7],94.5%
same,"viability, T/C",[8],82%
same,"viability, T/C",[9],76.9%
same,"viability, T/C","second compound 1 µM, first compound 0.316 µM",64.8%
same,"viability, T/C","second compound 1 µM, first compound 1 µM",53.6%
same,"viability, T/C","second compound 1 µM, first compound 3.16 µM",46.3%
same,"viability, T/C",[10],80.6%
same,"viability, T/C",[11],82.6%
same,"viability, T/C",[12],70%
same,"viability, T/C","second compound 3.16 µM, first compound 0.316 µM",55.8%
same,"viability, T/C","second compound 3.16 µM, first compound 1 µM",37.5%
same,"viability, T/C","second compound 3.16 µM, first compound 3.16 µM",48.4%
same,"viability, T/C","second compound 10 µM, first compound 0.01 µM",37.4%
same,"viability, T/C","second compound 10 µM, first compound 0.0316 µM",46.5%
same,"viability, T/C","second compound 10 µM, first compound 0.1 µM",45.8%
same,"viability, T/C","second compound 10 µM, first compound 0.316 µM",34.1%
same,"viability, T/C","second compound 10 µM, first compound 1 µM",36.9%
same,"viability, T/C","second compound 10 µM, first compound 3.16 µM",24.8%
CC(C)n1nc(-c2ccc3oc(N)nc3c2)c2c(N)ncnc21 + C=CC(=O)N1CCN(c2nc(OCC3CCCN3C)nc3c2CCN(c2cccc4cccc(C)c24)C3)CC1CC#N,IC50,second compound 0.0316 µM,> 100 nM
same,IC50,second compound 0.1 µM,> 100 nM
same,IC50,second compound 0.316 µM,> 100 nM
same,IC50,second compound 1 µM,> 100 nM
same,IC50,second compound 3.16 µM,45.8 nM
same,"viability, T/C","second compound 0.0316 µM, first compound 0.000316 µM",88.4%
same,"viability, T/C","second compound 0.0316 µM, first compound 0.001 µM",143%
same,"viability, T/C","second compound 0.0316 µM, first compound 0.00316 µM",83%
same,"viability, T/C","second compound 0.0316 µM, first compound 0.01 µM",85.3%
same,"viability, T/C","second compound 0.0316 µM, first compound 0.0316 µM",63.2%
same,"viability, T/C","second compound 0.0316 µM, first compound 0.1 µM",57.4%
same,"viability, T/C","second compound 0.1 µM, first compound 0.000316 µM",95.8%
same,"viability, T/C","second compound 0.1 µM, first compound 0.001 µM",85.6%
same,"viability, T/C","second compound 0.1 µM, first compound 0.00316 µM",80.9%
same,"viability, T/C",[1],62.8%
same,"viability, T/C",[2],63.2%
same,"viability, T/C",[3],55.6%
same,"viability, T/C","second compound 0.316 µM, first compound 0.000316 µM",85.9%
same,"viability, T/C","second compound 0.316 µM, first compound 0.001 µM",90.2%
same,"viability, T/C","second compound 0.316 µM, first compound 0.00316 µM",87.6%
same,"viability, T/C",[4],62.9%
same,"viability, T/C",[5],56.4%
same,"viability, T/C",[6],52.8%
same,"viability, T/C","second compound 1 µM, first compound 0.000316 µM",82.8%
same,"viability, T/C","second compound 1 µM, first compound 0.001 µM",110%
same,"viability, T/C","second compound 1 µM, first compound 0.00316 µM",81.2%
same,"viability, T/C",[7],70.9%
same,"viability, T/C",[8],65.5%
same,"viability, T/C",[9],70.1%
same,"viability, T/C","second compound 3.16 µM, first compound 0.000316 µM",72.6%
same,"viability, T/C","second compound 3.16 µM, first compound 0.001 µM",55.3%
same,"viability, T/C","second compound 3.16 µM, first compound 0.00316 µM",69.8%
same,"viability, T/C",[10],75.6%
same,"viability, T/C",[11],65.8%
same,"viability, T/C",[12],16.1%
